Results from patent US20110044936A1, “Composition for Attracting Bed Bugs” (priority 2009, published 2011).

Columns and labels:
Format in all cases: in vivo
[1] = test system: bed bugs (Cimex lectularius); experiment: Bed bug aggregation assay, mixtures of Hexenal, Octenal and butyric acid (Example 3); conditions: for Number of bed bugs under experimental (Exp) disk: H/O 75/25 120 ppm in silicone oil, BA about 100 ppm in deionized water, 5 microliters each, ten bed bugs, average of two tests
Method: Attraction Assays: […] For this test, a mixture of Hexenal and Octenal (75:25 ratio) was diluted in silicone oil to provide about a 120 ppm solution. […] Readings were taken hourly for four hours from the release of bed bugs in the assay arena. The number of bed bugs under the control disk and the number of bed bugs under the experimental disk were recorded. The test chemical was considered to be an attractant if the number of bed bugs under the experimental filter disk was greater than the number under the control disk. Table 3 below summarizes the experimental data, the experimental test treatment considered as attractants are in bold.

[2] = test system: bed bugs (Cimex lectularius); experiment: Test arena gas assay, compounds dissolved in nonane (Example 5)
Description: A test arena was constructed from a 60×40×22 cm (L:W:H) polystyrene container. A 60×40 cm piece of filter paper was glued on the bottom to provide a walking surface for the bed bugs. At one end of the test arena, a triangular piece of plastic (16 cm high×25 cm long) was glued to the middle of the side and bottom of the container to create test zones of equal area on either side of the partition. On each side of this partition a piece of Tygon® tubing was inserted through a hole 7 cm above the bottom of each test zone to deliver a control gas to one side of the partition (control zone) and the experimental gas to the other side of the partition (experimental zone). The tubing was positioned to deliver the gases downward into the test zones with each outlet 6 cm above the filter paper glued to the bottom of the container. At the other end of the test arena, a 4 W night light was placed 35 cm above the bottom of the arena and regulated to a 12 hour light:12 hour dark (7 AM On: 7 PM Off) light cycle. Also placed adjacent to the night light was a small fan (Boston, cat#EHSDF) to create a gentle removal of gases from the distal part of the arena. Air released by the experimental and control gases was contained within their partitions and were gently drawn away from the respective air inputs, mixed within the arena and removed by the fan. This created a laminar flow where the bed bugs had opportunity to select either the experimental or control gas. Fifty bed bugs (Cimex lectularius) were entrapped within an inverted 90 mm Petri dish at a position furthest from the control and experimental zones until bed bugs were quiescent. Removal of the Petri dish started the experiment and readings were taken every hour for two hours. Data collected were number of bed bugs in the experimental, control and free arena zones. In addition, gas temperature, relative humidity, air flow rate, and percent CO2 data were collected. The experimental gas was considered to be an attractant if more bed bugs were in the experimental zone than in the control zone.
Determination of Bed Bug Aggregation Effect Using Hexenal, Butyric Acid, trans-2-Hexen-1-al Diethylacetal, Trimethylsilyl Butyrate or Methyl Butyrate Dissolved in an Alkane Solvent Using the test arena and methods described in Example 4, test treatments containing about 300 ppm of a pro-aldehyde compound, trans-2-hexen-1-al diethylacetal, dissolved in nonane, about 300 ppm of Hexenal dissolved in nonane, about 200 ppm of butyric acid dissolved in nonane and about 200 ppm of a pro-organic acid compound, trimethylsilyl butyrate or methyl butyrate, dissolved in nonane were prepared. Separate 100 micro liter pipettes (Drummond Wiretrol 100 μL) were filled with the test solutions. One end of each micro liter pipette was sealed with parafilm leaving one end of each open. […] An air tight lid was placed onto the plastic container and the container was installed in-line after humidity and temperature conditioning of the gas and before the gas entered the arena. The micro liter pipettes were weighed before and after use to determine the amount of the test compounds released. The control gas used for these experiments consisted of house compressed air.

[3] = test system: bed bugs (Cimex lectularius); experiment: Bed bug aggregation (attraction) assay, Petri dish arena with treated and control filter paper tents (Example 1); conditions: 5 microliters, one hour, five bed bugs, average of two tests
Method: Attraction Assays: Assay arenas were made from 150×15 mm plastic Petri dishes (VWR#25384-326) containing a 125 mm piece off qualitative filter paper (VWR#28320-100) glued to the bottom using 3M Super 77® multipurpose spray adhesive. A 80 mm hole was cut into the lid and a 500 um mesh Nytex® screen (Bioquip, #7293B) was glued to cover the opening using quick epoxy. Fresh bottom dishes were used in each assay. For these experiments 2.4 cm filter paper folded to create a tent were treated with either a control treatment (10 microliters of silicone oil for aldehyde controls and 5 microliters of deionized water for acid controls) or 10 microliters of the experimental test treatment diluted in silicone oil (aldehydes) or 5 microliters of the experimental chemical diluted in deionized water (acids). Ten bed bugs per test were released into the assay arena for the aldehyde test treatments and controls, five bed bugs per test were released into the assay arena for the acid test treatments. Day cycling bed bugs (Cimex lectularius), 12 hour light: 12 hour dark (7 AM On: 7 PM Off) light cycle, were incubated and evaluated under normal room lighting conditions at room temperature. Readings were taken at 1 hour intervals from the release of bed bugs for 4 hours for aldehydes and one hour for acids, due to the quick volatility of the acids. The number of bed bugs under the control filter paper disk and the number of bed bugs under the test treatment filter paper disk were recorded. The test treatment was considered to be an attractant if the number of bed bugs under the experimental filter disk was greater than the number under the control filter disk. Table 1 below summarizes the experimental data, the experimental test treatments considered as attractants are in bold.

[4] = test system: bed bugs (Cimex lectularius); experiment: Test arena assay with experimental gas and control gas zones (Example 4); conditions: after two hour exposure; fifty bed bugs; Hexenal/Octenal 75/25 at 73 nanograms/hour, butyric acid 3.097 micrograms/hour @ 100 mL/min air flow; CO2 50%; test gas 23-26 °C; control gas compressed air
Description: A test arena was constructed from a 60×40×22 cm (L:W:H) polystyrene container. […] At one end of the test arena, a triangular piece of plastic (16 cm high×25 cm long) was glued to the middle of the side and bottom of the container to create test zones of equal area on either side of the partition. On each side of this partition a piece of Tygon® tubing was inserted through a hole 7 cm above the bottom of each test zone to deliver a control gas to one side of the partition (control zone) and the experimental gas to the other side of the partition (experimental zone). The tubing was positioned to deliver the gases downward into the test zones with each outlet 6 cm above the filter paper glued to the bottom of the container. […] Removal of the Petri dish started the experiment and readings were taken every hour for two hours. […] Air temperature was monitored with a high/low thermometer. […] Relative humidity was monitored using a high/low hygrometer placed in-line immediately before the gas entered the arena. […] The relationship between valve settings and air flow was determined and using this information, valve settings were determined that could deliver blended gases (air and CO2) at a flow rate of about 100 or about 200 ml/min. […]

Row | Compound | Number of bed bugs under experimental (Exp) disk ([1]; 1 Hour) | Number of bed bugs under experimental (Exp) disk ([1]; 2 Hour) | Number of bed bugs under experimental (Exp) disk ([1]; 3 Hour) | Number of bed bugs under experimental (Exp) disk ([1]; 4 Hours) | Attraction of bed bugs to experimental filter disks ([1]; H/O 75:25 120 ppm, butyric acid 100 ppm) | % Bed bugs in Experimental Zone ([2]; after two hour exposure, released from nonane solution at 150.0-184.8 nanograms/hour @ 100 mL/min air flow, test gas 21-22 °C, control gas compressed air) [%] | Attraction of bed bugs to gaseous mixture ([2]; test arena, two hour exposure, versus control gas) | Number of bed bugs under experimental (Exp) filter paper disk ([3]; organic acid 10 ppm in deionized water) | Number of bed bugs under experimental (Exp) filter paper disk ([3]; organic acid 50 ppm in deionized water) | Number of bed bugs under experimental (Exp) filter paper disk ([3]; organic acid 100 ppm in deionized water) | Number of bed bugs under experimental (Exp) filter paper disk ([3]; organic acid 1000 ppm in deionized water) | Number of bed bugs under experimental (Exp) filter paper disk ([3]; organic acid 10000 ppm in deionized water) | % Bed bugs in Experimental Zone [4] [%]
1 | CCCC(=O)O [Butyric acid, butyric acid] | 4.5 | 5.5 | 4.5 | 5 | attracted | 34.0 | attracted | 4 | 2 | 4 | 4 | 4 | 
2 | O=C=O [CO2, carbon dioxide] |  |  |  |  |  |  |  |  |  |  |  |  | 76.0
